Data as given in PMC9775652, “Concomitant Administration of Red Ginseng Extract with Lactic Acid Bacteria Increases the Plasma Concentration of Deglycosylated Ginsenosides in Healthy Human Subjects” (Biomolecules, 2022).
“And” between values parts separate entries of the source, which are not always exact repeats. Identical values can stand only once. Like-named read-outs stand apart in the source and are kept apart here.

Legend:
[1] = tested on: LAB; assay: In vitro RGE fermentation with LAB; format: in vitro ADME; conditions: RGE incubated with LAB (1 billion CFU) for 7 days at 37 °C; result in words
[2] = Transport (permeability) of ginsenosides in CaCo-2 cell monolayers; format: in vitro ADME; conditions: human, Caco-2, CaCo-2 cell monolayers, 50 µM; B to A Papp divided by A to B Papp; read-out: Efflux ratio (ER)
[3] = cited from earlier work
[4] = Pharmacokinetic study of ginsenosides in healthy humans after repeated oral RGE with or without LAB; format: in vivo, human; conditions: for Cmax / MRT / Tmax / AUC: male, in vivo, human plasma, mean ± SD, n = 5; for Cmax: read-out: Cmax; for MRT: read-out: MRT; for Tmax: read-out: Tmax; for AUC: AUC 0 to 24 h, read-out: AUC
[5] = 104.1 mg total ginsenosides/day, RGE group, RGE oral 14 days

CC(C)=CCC[C@](C)(O)[C@H]1CC[C@]2(C)[C@@H]1[C@H](O)C[C@@H]1[C@@]3(C)CC[C@H](O[C@@H]4O[C@H](CO)[C@@H](O)[C@H](O)[C@H]4O)C(C)(C)[C@@H]3CC[C@]12C [GRh2, ginsenoside Rh2]
Relative abundance / metabolic activity following fermentation of RGE with LAB [1]: significantly increased
efflux ratio at 50 µM [2]: 2.3
Oral BA [3]: 5%
Fold increase of plasma AUC after LAB supplementation ([4]; RGE + LAB group compared to RGE group, humans, 2 weeks): 2.1 fold and 2.7 fold
Change of AUC / pharmacokinetic parameters by RGE and LAB co-administration ([4]; RGE + LAB group versus RGE group, humans, result in words): significantly increased
Cmax [4, 5]: 2.1 ± 0.8 ng/mL
MRT [4, 5]: 17 ± 9.3 h
Tmax [4, 5]: 10.7 ± 0.6 h
AUC ([4]; RGE + LAB group, RGE plus LAB (1 billion CFU/2 g) once daily oral 14 days): 57.1 ± 22 ng·h/mL
Cmax ([4]; RGE + LAB group, oral 14 days): 13.9 ± 12.8 ng/mL
MRT ([4]; RGE + LAB group, oral 14 days): 10.2 ± 1.6 h
Tmax ([4]; RGE + LAB group, oral 14 days): 10.6 ± 1.8 h
AUC ([4]; RGE group, RGE once daily oral 14 days (104.1 mg total ginsenosides/day)): 21.3 ± 10.1 ng·h/mL
